{
  "source": "paper PMC12195648",
  "about": "(Pharmaceuticals, 2025)",
  "data": [
    {"system": "K562 cells", "assay": "Cytotoxicity, resazurin assay, K562", "format": "cell-based, human", "conditions": "Homo sapiens, K562; 72 h, resazurin, GI50 ± SD", "protocol": "(§1) The development of the KCL22 subclone B8 (T315I, 100%) has been previously detailed. All cell lines were maintained in a humidified incubator at 37 °C and 5% CO2, following the manufacturer’s instructions, in the appropriate medium supplemented with 10% foetal bovine serum, penicillin (100 IU/mL), streptomycin (100 µg/mL), and glutamine (4 mM).\n(§2) Cytotoxicity was assessed utilizing resazurin, an indicator dyes that measures oxidation-reduction reactions in the mitochondria of living cells. Cells were seeded into 96-well plates and treated with the compounds for 72 h (six different doses of each compound, in triplicate).", "units": {"GI50": "nM"}, "values": [
      {"smiles": "Cc1ccc(NC(=O)c2ccc(CN3CCN(C)CC3)cc2)cc1Nc1nccc(-c2cccnc2)n1", "note": "[imatinib, reference compound]", "GI50": "230 ± 10"}
    ]},
    {"system": "KCL22 cells", "assay": "Cytotoxicity, resazurin assay, KCL22", "format": "cell-based, human", "conditions": "Homo sapiens, KCL-22; 72 h, resazurin, GI50 ± SD", "protocol": "as §1, §2", "units": {"GI50": "nM"}, "values": [
      {"smiles": "Cc1ccc(NC(=O)c2ccc(CN3CCN(C)CC3)cc2)cc1Nc1nccc(-c2cccnc2)n1", "note": "[imatinib, reference compound]", "GI50": "9260 ± 1000"}
    ]},
    {"system": "HEK-293T cells", "assay": "Cytotoxicity, resazurin assay, non-neoplastic HEK-293T", "format": "cell-based", "conditions": "Homo sapiens, 72 h, GI50 ± SD", "protocol": "as §1, with “The human cell line KCL22 was sourced from the German Collection of Microorganisms and Cell Cultures, while K562 and HEK-293T cells were obtained from the European Collection of Authenticated Cell Cultures. The” for “The”\nCytotoxicity was assessed utilizing resazurin, an indicator dyes that measures oxidation-reduction reactions in the mitochondria of living cells. Cells were seeded into 96-well plates and treated with the compounds for 72 h (six different doses of each compound, in triplicate). After treatment, a solution of resazurin (Merck, Prague, Czech Republic) was added for 4 h, and the fluorescence of resorufin corresponding to viable cell quantity was measured at 544 nm/590 nm (excitation/emission) using a Fluoroskan Ascent microplate reader (LabSystems, Helsinki, Finland).", "units": {"GI50": "nM"}, "values": [
      {"smiles": "Cc1ccc(NC(=O)c2ccc(CN3CCN(C)CC3)cc2)cc1Nc1nccc(-c2cccnc2)n1", "note": "[imatinib, reference compound]", "GI50": "> 10000"}
    ]},
    {"system": "Bcr-Abl", "assay": "not given", "conditions": "58-purine 3D-QSAR database, Table S3; cited from earlier work", "values": [
      {"smiles": "CCCCCn1cnc2c(Nc3ccc(F)c(F)c3)nc(Nc3ccc(N4CCN(C)CC4)cc3)nc21", "note": "[Compound 37]", "pIC50 Exp": 5.866},
      {"smiles": "CN1CCN(C(=O)c2ccc(Nc3nc(Nc4ccccc4)c4ncn(CC5CC5)c4n3)cc2)CC1", "note": "[Compound 29]", "pIC50 Exp": 5.917},
      {"smiles": "CCCCCn1cnc2c(Nc3cccc(F)c3)nc(Nc3ccc(N4CCN(C)CC4)cc3)nc21", "note": "[Compound 42]", "pIC50 Exp": 6.187},
      {"smiles": "CCCCCCn1cnc2c(Nc3cccc(F)c3)nc(Nc3ccc(N4CCN(CCO)CC4)cc3)nc21", "note": "[Compound 57]", "pIC50 Exp": 6.174},
      {"smiles": "CN1CCN(c2ccc(Nc3nc(Nc4cccc(OC(F)(F)F)c4)c4ncn(CC5CC5)c4n3)cc2)CC1", "note": "[Compound 19]", "pIC50 Exp": 5.939},
      {"smiles": "CN1CCN(C(=O)c2ccc(Nc3nc(Nc4cccc(F)c4)c4ncn(CC5CC5)c4n3)cc2)CC1", "note": "[Compound 30]", "pIC50 Exp": 6.244},
      {"smiles": "CN1CCN(c2ccc(Nc3nc(NCc4ccccc4)c4ncn(CC5CC5)c4n3)cc2)CC1", "note": "[Compound 49]", "pIC50 Exp": 6.076},
      {"smiles": "OCCN1CCN(c2ccc(Nc3nc(Nc4ccc(F)c(F)c4)c4ncn(CC5CC5)c4n3)cc2)CC1", "note": "[Compound 52]", "pIC50 Exp": 7.703},
      {"smiles": "CN1CCN(c2ccc(Nc3nc(Nc4ccc(F)c(Cl)c4)c4ncn(CC5CC5)c4n3)cc2)CC1", "note": "[Compound 25]", "pIC50 Exp": 6.569},
      {"smiles": "CN1CCN(c2ccc(Nc3nc(Nc4ccccc4)c4ncn(CC5CC5)c4n3)cc2F)CC1", "note": "[Compound 7]", "pIC50 Exp": 6.237},
      {"smiles": "COc1cc(Cl)ccc1Nc1nc(Nc2ccc(N3CCN(C)CC3)c(F)c2)nc2c1ncn2CC1CC1", "note": "[Compound 13]", "pIC50 Exp": 5.074},
      {"smiles": "CN1CCN(c2ccc(Nc3nc(Nc4ccc(F)c(F)c4)c4ncn(CC5CC5)c4n3)cc2)CC1", "note": "[Compound 4]", "pIC50 Exp": 7.398},
      {"smiles": "CC(C)CCn1cnc2c(Nc3cccc(F)c3)nc(Nc3ccc(N4CCN(CCO)CC4)cc3)nc21", "note": "[Compound 54]", "pIC50 Exp": 6.886},
      {"smiles": "CN1CCN(c2ccc(Nc3nc(Nc4cccc(F)c4)c4ncn(CC5CC5)c4n3)cc2F)CC1", "note": "[Compound 9]", "pIC50 Exp": 6.222},
      {"smiles": "OCCN1CCN(c2ccc(Nc3nc(Nc4cccc(F)c4)c4ncn(CC5CC5)c4n3)cc2)CC1", "note": "[VII]", "pIC50 Exp": 7.833},
      {"smiles": "CN1CCN(c2ccc(Nc3nc(Nc4ccc(OC(F)(F)F)c([N+](=O)[O-])c4)c4ncn(CC5CC5)c4n3)cc2)CC1", "note": "[Compound 28]", "pIC50 Exp": 6.357},
      {"smiles": "CCCCCCn1cnc2c(Nc3ccc(F)c(F)c3)nc(Nc3ccc(N4CCN(C)CC4)cc3)nc21", "note": "[Compound 40]", "pIC50 Exp": 4.469},
      {"smiles": "CCCCCCCCn1cnc2c(Nc3ccc(F)c(F)c3)nc(Nc3ccc(N4CCN(C)CC4)cc3)nc21", "note": "[Compound 32]", "pIC50 Exp": 4.063},
      {"smiles": "CC(C)CCn1cnc2c(Nc3ccccc3)nc(Nc3ccc(N4CCN(CCO)CC4)cc3)nc21", "note": "[Compound 53]", "pIC50 Exp": 5.907},
      {"smiles": "CN1CCN(c2ccc(Nc3nc(Nc4cccc(C#N)c4)c4ncn(CC5CC5)c4n3)cc2)CC1", "note": "[Compound 15]", "pIC50 Exp": 7.155},
      {"smiles": "CN1CCN(c2ccc(Nc3nc(Nc4cccc(Cl)c4)c4ncn(CC5CC5)c4n3)cc2)CC1", "note": "[Compound 17]", "pIC50 Exp": 6.921},
      {"smiles": "CN1CCN(c2ccc(Nc3nc(N)c4ncn(CC5CC5)c4n3)cc2)CC1", "note": "[Compound 46]", "pIC50 Exp": 5.403},
      {"smiles": "CCCCCCn1cnc2c(Nc3ccc(F)c(F)c3)nc(Nc3ccc(N4CCN(CCO)CC4)cc3)nc21", "note": "[Compound 58]", "pIC50 Exp": 5.775},
      {"smiles": "CN1CCN(c2ccc(Nc3nc(Nc4ccc([N+](=O)[O-])cc4)c4ncn(CC5CC5)c4n3)cc2)CC1", "note": "[Compound 22]", "pIC50 Exp": 6.886},
      {"smiles": "COc1ccc(Nc2nc(Nc3ccc(N4CCN(C)CC4)c(F)c3)nc3c2ncn3CC2CC2)cc1", "note": "[Compound 11]", "pIC50 Exp": 6.469},
      {"smiles": "CN1CCN(Cc2ccc(Nc3nc(Nc4cccc(F)c4)c4ncn(CC5CC5)c4n3)cc2)CC1", "note": "[Compound 45]", "pIC50 Exp": 6.744},
      {"smiles": "COC(=O)c1ccc(Nc2nc(Nc3ccc(N4CCN(C)CC4)cc3)nc3c2ncn3CC2CC2)cc1", "note": "[Compound 24]", "pIC50 Exp": 7.398},
      {"smiles": "CN1CCN(c2ccc(Nc3nc(Nc4cccc([N+](=O)[O-])c4)c4ncn(CC5CC5)c4n3)cc2)CC1", "note": "[Compound 20]", "pIC50 Exp": 6.770},
      {"smiles": "CN1CCN(c2ccc(Nc3nc(Nc4ccc(F)cc4)c4ncn(CC5CC5)c4n3)cc2F)CC1", "note": "[Compound 8]", "pIC50 Exp": 5.971},
      {"smiles": "CN1CCN(c2ccc(Nc3nc(Nc4ccc(F)c(F)c4)c4ncn(CC5CC5)c4n3)cc2F)CC1", "note": "[Compound 10]", "pIC50 Exp": 6.237},
      {"smiles": "CC(C)CCn1cnc2c(Nc3ccccc3)nc(Nc3ccc(N4CCN(C)CC4)cc3)nc21", "note": "[Compound 36]", "pIC50 Exp": 5.750},
      {"smiles": "CN1CCN(c2ccc(Nc3nc(Nc4cccc(C(F)(F)F)c4)c4ncn(CC5CC5)c4n3)cc2)CC1", "note": "[Compound 18]", "pIC50 Exp": 5.75},
      {"smiles": "CCCCCCn1cnc2c(Nc3ccccc3)nc(Nc3ccc(N4CCN(C)CC4)cc3)nc21", "note": "[Compound 38]", "pIC50 Exp": 5.008},
      {"smiles": "CN1CCN(c2ccc(Nc3nc(Nc4cccc(F)c4)c4ncn(CC5CC5)c4n3)cc2)CC1", "note": "[Compound 3]", "pIC50 Exp": 7.398},
      {"smiles": "CN1CCN(C(=O)c2ccc(Nc3nc(Nc4ccc(F)c(F)c4)c4ncn(CC5CC5)c4n3)cc2)CC1", "note": "[Compound 31]", "pIC50 Exp": 6.027},
      {"smiles": "CCCCCn1cnc2c(Nc3ccccc3)nc(Nc3ccc(N4CCN(C)CC4)cc3)nc21", "note": "[Compound 35]", "pIC50 Exp": 5.910},
      {"smiles": "CN1CCN(c2ccc(Nc3nc(Nc4ccc(Cl)c(F)c4)c4ncn(CC5CC5)c4n3)cc2)CC1", "note": "[Compound 27]", "pIC50 Exp": 6.699},
      {"smiles": "CN1CCN(c2ccc(Nc3nc(Nc4ccccc4F)c4ncn(CC5CC5)c4n3)cc2)CC1", "note": "[Compound 14]", "pIC50 Exp": 5.378},
      {"smiles": "CN1CCN(c2ccc(Nc3nc(Nc4ccc(OC(F)(F)F)cc4)c4ncn(CC5CC5)c4n3)cc2)CC1", "note": "[Compound 21]", "pIC50 Exp": 6.409},
      {"smiles": "CC(C)CCn1cnc2c(Nc3ccc(F)c(F)c3)nc(Nc3ccc(N4CCN(C)CC4)cc3)nc21", "note": "[Compound 43]", "pIC50 Exp": 5.642},
      {"smiles": "CC(C)CCn1cnc2c(Nc3cccc(F)c3)nc(Nc3ccc(N4CCN(C)CC4)cc3)nc21", "note": "[Compound 34]", "pIC50 Exp": 4.301},
      {"smiles": "CN1CCN(c2ccc(Nc3nc(NC4CCCCC4)c4ncn(CC5CC5)c4n3)cc2)CC1", "note": "[Compound 47]", "pIC50 Exp": 4.956},
      {"smiles": "CN1CCN(c2ccc(Nc3nc(Nc4ccccc4)c4ccn(CC5CC5)c4n3)cc2)CC1", "note": "[Compound 44]", "pIC50 Exp": 4.206},
      {"smiles": "CN1CCN(c2ccc(Nc3nc(Nc4ccc(Cl)c(Cl)c4)c4ncn(CC5CC5)c4n3)cc2)CC1", "note": "[Compound 26]", "pIC50 Exp": 7.155},
      {"smiles": "CN1CCN(Cc2ccc(Nc3nc(Nc4ccc(F)c(F)c4)c4ncn(CC5CC5)c4n3)cc2)CC1", "note": "[Compound 48]", "pIC50 Exp": 6.649},
      {"smiles": "COc1cc(Cl)ccc1Nc1nc(Nc2ccc(N3CCN(C)CC3)cc2)nc2c1ncn2CC1CC1", "note": "[Compound 6]", "pIC50 Exp": 6.097},
      {"smiles": "CCCCCCn1cnc2c(Nc3ccccc3)nc(Nc3ccc(N4CCN(CCO)CC4)cc3)nc21", "note": "[Compound 56]", "pIC50 Exp": 6.081},
      {"smiles": "Cc1cccc(Nc2nc(Nc3ccc(N4CCN(C)CC4)cc3)nc3c2ncn3CC2CC2)c1", "note": "[Compound 16]", "pIC50 Exp": 7.000},
      {"smiles": "CN1CCN(c2ccc(Nc3nc(Nc4ccc(C#N)cc4)c4ncn(CC5CC5)c4n3)cc2)CC1", "note": "[Compound 23]", "pIC50 Exp": 7.000},
      {"smiles": "CC(C)CCn1cnc2c(Nc3ccc(F)c(F)c3)nc(Nc3ccc(N4CCN(CCO)CC4)cc3)nc21", "note": "[Compound 55]", "pIC50 Exp": 5.754},
      {"smiles": "COc1cc(Nc2nc(Nc3ccc(N4CCN(C)CC4)cc3)nc3c2ncn3CC2CC2)c(OC)cc1Cl", "note": "[Compound 5]", "pIC50 Exp": 4.444}
    ]},
    {"system": "Bcr-Abl", "assay": "not given", "conditions": "earlier purines of the group; cited from earlier work", "units": {"IC50": "nM"}, "values": [
      {"smiles": "OCCN1CCN(c2ccc(Nc3nc(Nc4cccc(F)c4)c4ncn(CC5CC5)c4n3)cc2)CC1", "note": "[VII]", "IC50": 15},
      {"smiles": "CCCCCCCCn1cnc2c(Nc3ccc(F)c(F)c3)nc(Nc3ccc(N4CCN(C)CC4)cc3)nc21", "note": "[Compound 32]", "IC50": 86500},
      {"smiles": "CN1CCN(c2ccc(Nc3nc(Nc4cccc(C#N)c4)c4ncn(CC5CC5)c4n3)cc2)CC1", "note": "[X]", "IC50": 70}
    ]}
  ]
}
